# Measurements taken from patent US5905089A, “Use of sesquiterpene lactones for treatment of severe inflammatory disorders” (Board of Supervisors of Louisiana State University and …, priority 1998, dated 1999).
# How the values were obtained:
# [1] = test system: MAPKs; assay: Tyrosine phosphorylation / activation of MAPKs in RAW 264.7 cells; type: cell-based, murine; conditions: for effect on parthenolide inhibition of LPS-induced activation of MAPKs: parthenolide 1 μg/ml with DTT 100 μM, 2-ME 50 μM or Cys 150 μM, LPS 1 μg/ml, 30 min, FIG. 6A
# Protocol: (§1) Rat (Sprague-Dawley) alveolar macrophages were collected by broncho-alveolar lavage as described by Lee et al., J. Biol. Chem., vol. 267, pp. 25934-25938 (1992). The murine macrophage cell line RAW 264.7 (ATCC no. TIB-71) was cultured in Dubecco's modified Eagle's medium (DMEM) containing 10% heat-inactivated fetal bovine serum (FBS, Intergen). For the cyclooxygenase activity assay, cells were seeded in 24 well plates, and after near-confluency, cells were treated with aspirin (250 μM) for 2.5h to inactivate endogenous cyclooxygenase. […] COX activity was determined by measuring prostaglandin E2 concentrations in cells incubated with arachidonic acid (30 μM) for 10 minutes as described in Lee et al. (1992).
# (§2) This detection technique was carried out essentially as described in Chanmugan et al. (1995) using 4G10 monoclonal antiphosphotyrosine antibody (UBI) and the ECL detection system (Amersham).
# (§3) Parthenolide suppressed LPS-stimulated tyrosine phosphorylation of various proteins in RAW 264.7 cells as assessed by antiphosphotyrosine immunoblot, depicted in FIG. 5A. This inhibition was correlated with the suppressed expression of COX-2 and IL-1α. RAW 264.7 cells were pretreated with parthenolide in various concentrations or with herbimycin A (0.5 μg/ml) for 3h, and then stimulated with LPS (1 μg/ml) in the presence of the inhibitors for 30 min. […] Therefore, the extent of tyrosine phosphorylation of JNK-1 was assessed by the electrophoretic mobility shift of phosphorylated JNK-1 as shown in FIG. 5B. Parthenolide inhibited tyrosine phosphorylation of JNK-1. Another protein tyrosine kinase inhibitor, herbimycin A ([…]), inhibited tyrosine phosphorylation of the MAPK subfamily.
# The mechanism by which parthenolide inhibits protein tyrosine phosphorylation is not currently known. It has been speculated that the tyrosine kinase inhibitor herbimycin A inactivates p60^v-src kinase by irreversibly binding to the sulphydryl (SH) groups of p60^v-src kinase. Y. Uehara et al., Biochem. Biophys. Res. Commun., vol. 163, pp. 803-809 (1989). The inactivation by herbimycin may occur through conjugation between highly polarized double bonds in the benzoquinone moiety of herbimycin A and the SH group of sulphydryl compounds. Without wishing to be bound by this theory, the α-methylenebutyrolactone in parthenolide may interact with biological nucleophiles such as sulphydryl groups. Indeed, pretreating cells with sulphydryl compounds abrogated the inhibitory effect of parthenolide on LPS-induced activation of MAPKs as shown in FIG. 6A. In FIG. 6, RAW 264.7 cells were pretreated with parthenolide (1 μg/ml) in the presence of DTT (dithiothreitol, 100 μM), 2-ME (2-mercaptoethanol, 50 μM), or Cys (L-cysteine, 150 μM), and were then stimulated with LPS (1 μg/ml). Cells were incubated for 30 min for antiphosphotyrosine immunoblot analysis (FIG. 6A) and 8h for COX-2 and IL-1α Western blot analyses (FIG. 6B). […] Whether parthenolide inhibits protein tyrosine phosphorylation by directly inhibiting PTKs or by inhibiting other target protein(s) that affect the activity of PTKs is not currently known.
# [2] = test system: COX-2; assay: COX-2 expression in LPS-stimulated RAW 264.7 cells (Western blot); type: cell-based, murine; conditions: parthenolide 1 μg/ml with DTT 100 μM, 2-ME 50 μM or Cys 150 μM; LPS 1 μg/ml, 8h; FIG. 6B
# Protocol: as §1
# (§4) The protein levels of COX-2 and GAPDH were assessed by Western blot analysis using polyclonal antibodies as described in Lee et al. (1992). Polyclonal antibodies for IL-1α and JNK-1 were purchased from Genzyme and Santa Cruz Biotech, respectively.
# as §3
# (§5) The mechanism by which parthenolide inhibits protein tyrosine phosphorylation is not currently known. It has been speculated that the tyrosine kinase inhibitor herbimycin A inactivates p60^v-src kinase by irreversibly binding to the sulphydryl (SH) groups of p60^v-src kinase. Y. Uehara et al., Biochem. Biophys. Res. Commun., vol. 163, pp. 803-809 (1989). The inactivation by herbimycin may occur through conjugation between highly polarized double bonds in the benzoquinone moiety of herbimycin A and the SH group of sulphydryl compounds. Without wishing to be bound by this theory, the α-methylenebutyrolactone in parthenolide may interact with biological nucleophiles such as sulphydryl groups. Indeed, pretreating cells with sulphydryl compounds abrogated the inhibitory effect of parthenolide on LPS-induced activation of MAPKs as shown in FIG. 6A. […]
# [3] = test system: IL-1α; assay: IL-1α expression in LPS-stimulated RAW 264.7 cells (Western blot); type: cell-based, murine; conditions: parthenolide 1 μg/ml with DTT 100 μM, 2-ME 50 μM or Cys 150 μM; LPS 1 μg/ml, 8h; FIG. 6B
# Protocol: as §1, §4, §3, §5
# [4] = test system: COX-2; assay: Inhibition of the expression of COX-2 in LPS-stimulated macrophages (Table 1); type: cell-based; conditions: for IC50, inhibiting the expression of COX-2: IC50 determined at multiple dose levels; for inhibitory activity (COX-2 expression), in words: comparison among tested compounds
# Protocol: Rat (Sprague-Dawley) alveolar macrophages were collected by broncho-alveolar lavage as described by Lee et al., J. Biol. Chem., vol.
# Alveolar macrophages pretreated with aspirin were incubated with LPS (10 μg/ml) and various concentrations of parthenolide for 16h. The activity of de novo synthesized COX-2 was determined by measuring the levels of PGE2 produced from exogenous arachidonic acid. Activity of TNFα was determined by bioassay using L929 cells as described by Aggarwal et al., J. Biol. Chem., vol. […] Values in FIG. 2 are the means of triplicate samples for TNFα and duplicate samples for PGE2.
# [5] = test system: tumor; conditions: cited from earlier work
# [6] = test system: epidermal growth factor receptor; conditions: in vitro; cited from earlier work
# [7] = test system: ERK-1; assay: Tyrosine phosphorylation of ERK-1 in RAW 264.7 cells (antiphosphotyrosine immunoblot); type: cell-based, murine; conditions: 3h pretreatment, LPS 1 μg/ml 30 min; FIG. 5A
# Protocol: as §1, §2
# (§6) Parthenolide suppressed LPS-stimulated tyrosine phosphorylation of various proteins in RAW 264.7 cells as assessed by antiphosphotyrosine immunoblot, depicted in FIG. 5A. This inhibition was correlated with the suppressed expression of COX-2 and IL-1α. […] Therefore, the extent of tyrosine phosphorylation of JNK-1 was assessed by the electrophoretic mobility shift of phosphorylated JNK-1 as shown in FIG. 5B. […]
# [8] = test system: ERK-2; assay: Tyrosine phosphorylation of ERK-2 in RAW 264.7 cells (antiphosphotyrosine immunoblot); type: cell-based, murine; conditions: 3h pretreatment, LPS 1 μg/ml 30 min; FIG. 5A
# Protocol: as §1, §2, §6
# [9] = test system: ERK-1; assay: Kinase activity of ERK-1 in RAW 264.7 cells (in-gel kinase assay, MBP substrate); type: cell-based, murine; conditions: 3h pretreatment, LPS 1 μg/ml 30 min; FIG. 5
# Protocol: as §1
# (§7) This assay was performed according to the method described by Kameshita et al., Anal. Biochem., vol. 183, pp. 139-143 (1989) using myelin basic protein (MBP) as a substrate.
# as §6
# [10] = test system: ERK-2; assay: Kinase activity of ERK-2 in RAW 264.7 cells (in-gel kinase assay, MBP substrate); type: cell-based, murine; conditions: 3h pretreatment, LPS 1 μg/ml 30 min; FIG. 5
# Protocol: as §1, §7, §6
compound,measurement,setting,value
"O[C@H](CS)[C@H](O)CS (racemic) [DTT, dithiothreitol]",effect on parthenolide inhibition of LPS-induced activation of MAPKs,[1],abrogated
same,effect on parthenolide-inhibited expression of COX-2,[2],recovered expression
same,effect on parthenolide-inhibited expression of IL-1α,[3],recovered expression
"OCCS [Compound 2-ME, 2-mercaptoethanol]",effect on parthenolide inhibition of LPS-induced activation of MAPKs,[1],abrogated
same,effect on parthenolide-inhibited expression of COX-2,[2],recovered expression
same,effect on parthenolide-inhibited expression of IL-1α,[3],recovered expression
"C=C1C(=O)O[C@@H]2/C=C(\C)[C@@H]3O[C@@H]3/C=C(/C(=O)OC)[C@H](O)[C@@H](OC(=O)[C@]3(C)O[C@@H]3C)[C@@H]12 [Compound 5, Melampodin A]","IC50, inhibiting the expression of COX-2",[4],0.5 µg/mL
same,"inhibitory activity (COX-2 expression), in words",[4],activities similar to that of parthenolide
"C=C1C(=O)O[C@@H]2[C@H]1CC[C@H](C)[C@]1(CCC(=O)O1)[C@@]2(C)O [Compound 8, Psilostachyin A]","IC50, inhibiting the expression of COX-2",[4],1.3 µg/mL
"C=C1C(=O)O[C@@H]2/C=C(\C)CC/C=C(\C)CC[C@@H]12 [Compound 9, Costunolide]","IC50, inhibiting the expression of COX-2",[4],1.6 µg/mL
"C[C@@H]1C[C@@H]2OC(=O)[C@]3(C)[C@H]2[C@@H](OC3(C)O)[C@]2(C)C(=O)C=C[C@@H]12 (stereo partly shown) [Compound 10, Tenulin]","IC50, inhibiting the expression of COX-2",[4],5.5 µg/mL
same,"inhibitory activity (COX-2 expression), in words",[4],significantly less than that of compounds 1-9
same,antitumor activity,[5],antitumor activity
"CC1=CCCC2(C)OC2C2OC(=O)C(C)C2CC1 (stereo not shown) [Compound 11, 11,13-dihydroparthenolide]","IC50, inhibiting the expression of COX-2",[4],> 100 µg/mL
same,"inhibitory activity (COX-2 expression), in words",[4],loss of inhibitory activity
"CC1C(=O)OC2C1CCC1(C)OC1CCC1(C)OC21 (stereo not shown) [Compound 12, 1(10)epoxy-11,13-dihydroparthenolide]","IC50, inhibiting the expression of COX-2",[4],> 100 µg/mL
same,"inhibitory activity (COX-2 expression), in words",[4],loss of inhibitory activity
"CC1=C2[C@H]3OC(=O)[C@@H](C)[C@@H]3CC[C@@]2(C)C=CC1=O [Compound 13, Santonin, reference compound]","IC50, inhibiting the expression of COX-2",[4],> 100 µg/mL
"N[C@@H](CS)C(=O)O [Cys, L-cysteine]",effect on parthenolide inhibition of LPS-induced activation of MAPKs,[1],abrogated
same,effect on parthenolide-inhibited expression of COX-2,[2],recovered expression
same,effect on parthenolide-inhibited expression of IL-1α,[3],recovered expression
O=c1c(-c2ccc(O)cc2)coc2cc(O)cc(O)c12 [genistein],tyrosine-specific protein kinase activity of the EGF receptor,[6],inhibited
"C=C1C(=O)O[C@@H]2C[C@@H](C)[C@@H]3C=CC(=O)[C@@]3(C)[C@@H](O)[C@H]12 [helenalin, reference compound]",antitumor activity,[5],some antitumor activity
"COC1C=CC=C(C)C(=O)NC2=CC(=O)C=C(C2=O)C(OC)C(C)CC(OC)C(OC)C(C)C=C(C)C1OC(N)=O (stereo not shown) [herbimycin A, reference compound]",tyrosine phosphorylation of ERK-1,[7],dose-dependent inhibition
same,tyrosine phosphorylation of ERK-2,[8],dose-dependent inhibition
same,tyrosine phosphorylation of the MAPK subfamily,"[1]; 3h pretreatment (herbimycin A 0.5 μg/ml), LPS 1 μg/ml 30 min",inhibited
same,kinase activity of ERK-1,[9],dose-dependent inhibition
same,kinase activity of ERK-2,[10],dose-dependent inhibition
Encelin [Compound 2],"IC50, inhibiting the expression of COX-2",[4],0.1 µg/mL
same,"inhibitory activity (COX-2 expression), in words",[4]; listed as Encelin,most active compound tested
same,"inhibitory activity (COX-2 expression), in words",[4]; listed as encelin,highest inhibitory activity
